From ChEMBL document CHEMBL5725908, “Tricyclic DLK inhibitors and uses thereof” (2018) come the findings set out here.

The target of the assay is T1, Mitogen-activated protein kinase kinase kinase 12 (Homo sapiens, UniProt Q12852).
T1 sequence (Q12852 whole entry): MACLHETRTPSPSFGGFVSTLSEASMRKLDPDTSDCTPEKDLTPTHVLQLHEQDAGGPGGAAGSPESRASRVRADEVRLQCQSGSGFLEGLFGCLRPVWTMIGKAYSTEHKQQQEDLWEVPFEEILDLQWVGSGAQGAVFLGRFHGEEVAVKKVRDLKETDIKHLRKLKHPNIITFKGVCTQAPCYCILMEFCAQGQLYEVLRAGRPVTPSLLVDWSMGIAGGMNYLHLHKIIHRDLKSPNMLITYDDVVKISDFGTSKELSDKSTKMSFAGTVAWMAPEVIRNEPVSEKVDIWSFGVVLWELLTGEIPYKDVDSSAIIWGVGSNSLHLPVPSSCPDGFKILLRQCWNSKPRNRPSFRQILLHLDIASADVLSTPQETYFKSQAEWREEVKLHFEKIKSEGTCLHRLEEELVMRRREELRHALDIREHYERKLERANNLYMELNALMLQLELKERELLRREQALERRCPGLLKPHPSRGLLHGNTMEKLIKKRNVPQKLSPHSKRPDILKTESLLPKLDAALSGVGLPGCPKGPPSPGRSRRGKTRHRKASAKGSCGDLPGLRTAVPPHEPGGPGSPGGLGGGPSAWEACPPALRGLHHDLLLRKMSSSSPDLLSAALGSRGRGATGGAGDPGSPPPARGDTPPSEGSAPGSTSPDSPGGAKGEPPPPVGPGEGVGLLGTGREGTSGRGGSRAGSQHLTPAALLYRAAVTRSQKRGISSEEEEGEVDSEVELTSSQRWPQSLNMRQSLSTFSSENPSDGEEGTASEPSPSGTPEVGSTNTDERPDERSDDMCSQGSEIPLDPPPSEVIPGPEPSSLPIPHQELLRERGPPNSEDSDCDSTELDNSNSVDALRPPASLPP
The assay can be described thus: DLK TR-FRET Inhibition Assay: DLK kinase reactions (20 μL) containing 5 nM N-terminally GST-tagged DLK (catalytic domain amino acid 1-520) (Carna Bioscience), 40 nM N-terminally HIS tagged MKK4 K131M substrate, and 30 μM ATP in kinase reaction buffer (50 mM HEPES, pH 7.5, 0.01% Triton X-100, 0.01% Bovine γ-Globulins, 2 mM DTT, 10 mM MgCl2 and 1 mM EGTA), and testing compound 1:3 serial diluted starting at 20 uM were incubated at ambient temperature for 60 minutes in 384 well OptiPlate (Perkin Elmer). To quench kinase reactions and detect phosphorylated MKK4, 15 μL of TR-FRET antibody mixture containing 2 nM anti-phosphorylated MKK4 labeled with Europium cryptate (Cisbio) and 23 nM anti-HIS labeled with D2 (Cisbio) in detection buffer (25 mM Tris pH 7.5, 100 mM NaCl, 100 mM EDTA, 0.01% Tween-20, and 200 mM KF) was added to the reaction mixture. The detection mixture was incubated for 3 hours at ambient temperature and the TR-FRET was detected with an EnVision multilabel plate reader (Perkin-Elmer) using the LANCE/DELFIA Dual Enh label from Perkin-Elmer (excitation filter: UV2 (TRF) 320 and emission filters: APC 665 and Europium 615).

pKi: −log10 of the molar value.

As for `CC1(C)OCCn2c1nc1c(N3CC4COCC4C3)nc(-c3cnc(N)nc3)nc12` (centres undefined), the pKi was 6.00. Regarding `Cc1c[nH]c2ncc(-c3nc(N4CC5COCC5C4)c4nc5n(c4n3)CCOC5(C)C)cc12` (centres undefined), the pKi was 7.33.

Take `CC(C)n1nccc1-c1nc(-c2cnc(N)nc2)nc2c1nc1n2CCOC1(C)C`: the pKi was 5.85. On to `COC1C2CCC1N(c1nc(-c3cnc(N)nc3)nc3c1nc1n3CCOC1(C)C)C2` (centres undefined), for which the pKi was 6.65.
